IC50 data for 27 compounds are collected here from US20260217711A1, “TRIAZOLOPYRIDINYL ETHER LINKED COMPOUNDS AS KINASE INHIBITORS” (Bristol-Myers Squibb Company, priority 2023, published 2026).

One experiment deals with MLKL phosphorylation (pMLKL) in HT29-L23 cells. In words: MLKL Phosphorylation High-Content Assay. In kind it is cell-based. Particulars: Homo sapiens, 6 h, necroptosis induced with human TNFα, SMAC mimetic and Z-VAD, read-out: LE pMLKL HC IC50. Here is the method: Following 6 h incubation at 37° C. […] MLKL phosphorylation was detected using anti-MLKL (phospho […]) antibody (Abcam #ab187091) (1:1000 dilution in Blocking Buffer [PBS supplemented with 0.1% BSA]) with ON incubation at 4° C. […] Following another three cycles of washes in PBS, the microplates were sealed, and cellular images were acquired in the Cellomics ArrayScan VTI high-content imager equipped with an X1 camera. […] The image sets were analyzed using the Compartmental Analysis Bioapplication software (Cellomics). The level of MLKL phosphorylation was quantified as […].
As to `CC(C)CC(O)C(F)(F)CCOc1cccc(-c2ccn3nc(N)nc3c2)c1F` (single isomer, unassigned) [Example 6, 1-(3-(2-amino-[1,2,4]triazolo[1,5-a]pyridin-7-yl)-2-fluorophenoxy)-3,3-difluoro-6-methylheptan-4-ol], the IC50 came to 80 nM. On the same count and under the same terms, in the case of `Nc1nc2cc(-c3ccc(Cl)c(OCCC(F)C(O)c4ccc(F)cc4)c3F)ccn2n1` (single isomer, unassigned) [Example 82, 4-(3-(2-amino-[1,2,4]triazolo[1,5-a]pyridin-7-yl)-6-chloro-2-fluorophenoxy)-2-fluoro-1-(4-fluorophenyl)butan-1-ol] it was 26 nM.

The same experiment, now with this note: necroptosis induced with human TNFα, SMAC mimetic and Z-VAD, 6 h, read-out: LE pMLKL HC IC50.
`CC(O)(c1ccc(F)cc1)C(F)(F)CCOc1cccc(-c2ccn3nc(N)nc3c2)c1C(F)F` (single isomer, unassigned) [Example 24, 5-(3-(2-amino-[1,2,4]triazolo[1,5-a]pyridin-7-yl)-2-(difluoromethyl)phenoxy)-3,3-difluoro-2-(4-fluorophenyl)pentan-2-ol]: the 50% inhibitory concentration (IC50) stood at 6000 nM. `Nc1nc2cc(-c3ccc(Cl)c(OCCC(F)C(O)c4ccc(F)cc4)c3F)ccn2n1` (single isomer, unassigned) [Example 98, 4-(3-(2-amino-[1,2,4]triazolo[1,5-a]pyridin-7-yl)-6-chloro-2-fluorophenoxy)-2-fluoro-1-(4-fluorophenyl)butan-1-ol]: the half-inhibitory concentration (IC50) was 2 nM. Same read-out and setting: the result for `COc1ccc(-c2ccn3nc(N)nc3c2)c(F)c1OCCC(F)(F)C(C)(O)c1ccc(F)cc1` (single isomer, unassigned) [Example 18, 5-(3-(2-amino-[1,2,4]triazolo[1,5-a]pyridin-7-yl)-2-fluoro-6-methoxyphenoxy)-3,3-difluoro-2-(4-fluorophenyl)pentan-2-ol] reads 80 nM; that for `CC(O)(c1cccc(F)c1)C(F)(F)CCOc1c(F)ccc(-c2ccn3nc(N)nc3c2)c1F` (single isomer, unassigned) [Example 122, 5-(3-(2-amino-[1,2,4]triazolo[1,5-a]pyridin-7-yl)-2,6-difluorophenoxy)-3,3-difluoro-2-(3-fluorophenyl)pentan-2-ol], 130 nM. Still for that read-out and setting: in the case of `Nc1nc2cc(-c3cccc(OCCC(F)(F)C(N)c4ccc(F)cc4)c3F)ccn2n1` (single isomer, unassigned) [Example 62, 7-(3-(4-amino-3,3-difluoro-4-(4-fluorophenyl)butoxy)-2-fluorophenyl)-[1,2,4]triazolo[1,5-a]pyridin-2-amine] it was 6 nM. With `CC(O)(c1ccc(F)cc1)C(F)(F)CCOc1c(F)ccc(-c2ccc3nc(N)nn3c2)c1F` (single isomer, unassigned) [Example 76, 5-(3-(2-amino-[1,2,4]triazolo[1,5-a]pyridin-6-yl)-2,6-difluorophenoxy)-3,3-difluoro-2-(4-fluorophenyl)pentan-2-ol], the IC50 was 2 nM.

With `CC(O)(c1ccc(F)cc1)C(F)(F)CCOc1c(Cl)ccc(-c2ccn3nc(N)nc3c2)c1F` (single isomer, unassigned) [Example 51, 5-(3-(2-amino-[1,2,4]triazolo[1,5-a]pyridin-7-yl)-6-chloro-2-fluorophenoxy)-3,3-difluoro-2-(4-fluorophenyl)pentan-2-ol], the IC50 came to 150 nM.

In the case of `CC(O)(c1ccc(Cl)cc1)C(F)(F)CCOc1c(Cl)ccc(-c2ccn3nc(N)nc3c2)c1F` (single isomer, unassigned) [Example 43, 5-(3-(2-amino-[1,2,4]triazolo[1,5-a]pyridin-7-yl)-6-chloro-2-fluorophenoxy)-2-(4-chlorophenyl)-3,3-difluoropentan-2-ol], the IC50 is 330 nM. Same read-out and setting: the result for `COc1cc(F)c(OCCC(F)(F)C(C)(O)c2ccc(F)cc2)c(F)c1-c1ccn2nc(N)nc2c1` (single isomer, unassigned) [Example 21, 5-(3-(2-amino-[1,2,4]triazolo[1,5-a]pyridin-7-yl)-2,6-difluoro-4-methoxyphenoxy)-3,3-difluoro-2-(4-fluorophenyl)pentan-2-ol] reads 1.1 nM; that for `CC(O)(c1ccc(Cl)cc1)C(F)(F)CCOc1c(F)ccc(-c2ccn3nc(N)nc3c2)c1F` (single isomer, unassigned) [Example 46, 5-(3-(2-amino-[1,2,4]triazolo[1,5-a]pyridin-7-yl)-2,6-difluorophenoxy)-2-(4-chlorophenyl)-3,3-difluoropentan-2-ol], 0.4 nM. On the same count and under the same terms, the result for `Nc1nc2cc(-c3ccc(F)c(OCCC(F)(F)C(O)c4ccc(F)cc4)c3)ccn2n1` (single isomer, unassigned) [Example 53, 4-(5-(2-amino-[1,2,4]triazolo[1,5-a]pyridin-7-yl)-2-fluorophenoxy)-2,2-difluoro-1-(4-fluorophenyl)butan-1-ol] reads 1.5 nM.

For `Nc1nc2cc(-c3ccc(F)c(OCCC(F)(F)C(O)c4ccc(F)cc4)c3F)ccn2n1` (single isomer, unassigned) [Example 55, 4-(3-(2-amino-[1,2,4]triazolo[1,5-a]pyridin-7-yl)-2,6-difluorophenoxy)-2,2-difluoro-1-(4-fluorophenyl)butan-1-ol], the IC50 was found to be 0.3 nM.

`Cc1ccc(-c2ccn3nc(N)nc3c2)c(F)c1OCCC(F)C(F)(F)c1ccc(F)cc1` (single isomer, unassigned) [Example 120, 7-(2-fluoro-4-methyl-3-(3,4,4-trifluoro-4-(4-fluorophenyl)butoxy)phenyl)-[1,2,4]triazolo[1,5-a]pyridin-2-amine]: the half-maximal inhibitory concentration (IC50) was found to be 9.6 nM. On the same count and under the same terms, in the case of `CC(C)(CC(F)(F)C(C)(O)c1ccc(F)cc1)Oc1c(F)ccc(-c2ccn3nc(N)nc3c2)c1F` (single isomer, unassigned) [Example 130, 5-(3-(2-amino-[1,2,4]triazolo[1,5-a]pyridin-7-yl)-2,6-difluorophenoxy)-3,3-difluoro-2-(4-fluorophenyl)-5-methylhexan-2-ol] it was 4200 nM.

With `CC(C)(CC(F)(F)C(C)(O)c1ccc(F)cc1)Oc1c(F)ccc(-c2ccn3nc(N)nc3c2)c1F` (single isomer, unassigned) [Example 131, 5-(3-(2-amino-[1,2,4]triazolo[1,5-a]pyridin-7-yl)-2,6-difluorophenoxy)-3,3-difluoro-2-(4-fluorophenyl)-5-methylhexan-2-ol], the half-maximal inhibitory concentration (IC50) amounted to 3.4 nM. Still for that read-out and setting: in the case of `Nc1nc2cc(-c3ccc(F)c(OCCC(F)(F)C(O)c4ccc(F)cn4)c3F)ccn2n1` (single isomer, unassigned) [Example 33, 4-(3-(2-amino-[1,2,4]triazolo[1,5-a]pyridin-7-yl)-2,6-difluorophenoxy)-2,2-difluoro-1-(5-fluoropyridin-2-yl)butan-1-ol] it was 85 nM; in that of `Nc1nc2cc(-c3cccc(OCCC(F)C(O)c4ccc(F)cc4)c3F)ccn2n1` (single isomer, unassigned) [Example 86, 4-(3-(2-amino-[1,2,4]triazolo[1,5-a]pyridin-7-yl)-2-fluorophenoxy)-2-fluoro-1-(4-fluorophenyl)butan-1-ol], 17 nM; in that of `CC(O)(c1ccc(F)cc1)C(F)(F)CCOc1cc(F)cc(-c2ccn3nc(N)nc3c2)c1F` (single isomer, unassigned) [Example 11, 5-(3-(2-amino-[1,2,4]triazolo[1,5-a]pyridin-7-yl)-2,5-difluorophenoxy)-3,3-difluoro-2-(4-fluorophenyl)pentan-2-ol], 0.2 nM. The same measure, in the same setting: the result for `CC(O)(c1ccccc1)C(F)(F)CCOc1c(F)ccc(-c2ccn3nc(N)nc3c2)c1F` (single isomer, unassigned) [Example 39, 5-(3-(2-amino-[1,2,4]triazolo[1,5-a]pyridin-7-yl)-2,6-difluorophenoxy)-3,3-difluoro-2-phenylpentan-2-ol] reads 130 nM; that for `Nc1nc2cc(-c3cc(F)c(F)c(OCCC(F)C(O)c4ccc(F)cc4)c3)ccn2n1` (single isomer, unassigned) [Example 118, 4-(5-(2-amino-[1,2,4]triazolo[1,5-a]pyridin-7-yl)-2,3-difluorophenoxy)-2-fluoro-1-(4-fluorophenyl)butan-1-ol], 1040 nM; that for `CC(O)(c1ccc(F)cc1)C(F)(F)CCOc1c(C(F)F)ccc(-c2ccn3nc(N)nc3c2)c1F` (single isomer, unassigned) [Example 25, 5-(3-(2-amino-[1,2,4]triazolo[1,5-a]pyridin-7-yl)-6-(difluoromethyl)-2-fluorophenoxy)-3,3-difluoro-2-(4-fluorophenyl)pentan-2-ol], 1.5 nM. Same read-out and setting: the result for `CC(O)(c1ccccc1)C(F)(F)CCOc1c(Cl)ccc(-c2ccn3nc(N)nc3c2)c1F` (single isomer, unassigned) [Example 42, 5-(3-(2-amino-[1,2,4]triazolo[1,5-a]pyridin-7-yl)-6-chloro-2-fluorophenoxy)-3,3-difluoro-2-phenylpentan-2-ol] reads 17 nM. Regarding `CC(O)(c1ccc(F)cc1)C(F)(F)CCOc1ccc(F)c(-c2ccn3nc(N)nc3c2)c1F` (single isomer, unassigned) [Example 8, 5-(3-(2-amino-[1,2,4]triazolo[1,5-a]pyridin-7-yl)-2,4-difluorophenoxy)-3,3-difluoro-2-(4-fluorophenyl)pentan-2-ol], the IC50 is 9 nM.

`CC(N)(c1ccc(F)cc1)C(F)(F)CCOc1c(F)ccc(-c2ccn3nc(N)nc3c2)c1F` (single isomer, unassigned) [Example 17, 7-(3-((4-amino-3,3-difluoro-4-(4-fluorophenyl)pentyl)oxy)-2,4-difluorophenyl)-[1,2,4]triazolo[1,5-a]pyridin-2-amine]: the concentration for half-maximal inhibition (IC50) was 60 nM. On the same count and under the same terms, in the case of `CC(O)(c1ccccc1)C(F)(F)CCOc1c(Cl)ccc(-c2ccn3nc(N)nc3c2)c1F` (single isomer, unassigned) [Example 41, 5-(3-(2-amino-[1,2,4]triazolo[1,5-a]pyridin-7-yl)-6-chloro-2-fluorophenoxy)-3,3-difluoro-2-phenylpentan-2-ol] it was 0.4 nM.
